{"source": "ChEMBL document CHEMBL2384904", "about": "“Discovery of potent, selective, bioavailable phosphodiesterase 2 (PDE2) inhibitors active in an osteoarthritis pain model, part I: transformation of selective pyrazolodiazepinone phosphodiesterase 4 (PDE4) inhibitors into selective PDE2 inhibitors” (Bioorg Med Chem Lett, 2013)", "key": {"in vitro": {"test": "in vitro", "details": "human, liver microsomes"}, "Homo sapiens [1]": {"species_on_record": "Homo sapiens", "test": "Selectivity ratio of IC50 for PDE4B (unknown origin) to IC50 for PDE2 (unknown origin)"}, "[2]": {"target": "3',5'-cyclic-AMP phosphodiesterase 4B (Homo sapiens, UniProt Q07343)", "sequence (Q07343 whole entry)": "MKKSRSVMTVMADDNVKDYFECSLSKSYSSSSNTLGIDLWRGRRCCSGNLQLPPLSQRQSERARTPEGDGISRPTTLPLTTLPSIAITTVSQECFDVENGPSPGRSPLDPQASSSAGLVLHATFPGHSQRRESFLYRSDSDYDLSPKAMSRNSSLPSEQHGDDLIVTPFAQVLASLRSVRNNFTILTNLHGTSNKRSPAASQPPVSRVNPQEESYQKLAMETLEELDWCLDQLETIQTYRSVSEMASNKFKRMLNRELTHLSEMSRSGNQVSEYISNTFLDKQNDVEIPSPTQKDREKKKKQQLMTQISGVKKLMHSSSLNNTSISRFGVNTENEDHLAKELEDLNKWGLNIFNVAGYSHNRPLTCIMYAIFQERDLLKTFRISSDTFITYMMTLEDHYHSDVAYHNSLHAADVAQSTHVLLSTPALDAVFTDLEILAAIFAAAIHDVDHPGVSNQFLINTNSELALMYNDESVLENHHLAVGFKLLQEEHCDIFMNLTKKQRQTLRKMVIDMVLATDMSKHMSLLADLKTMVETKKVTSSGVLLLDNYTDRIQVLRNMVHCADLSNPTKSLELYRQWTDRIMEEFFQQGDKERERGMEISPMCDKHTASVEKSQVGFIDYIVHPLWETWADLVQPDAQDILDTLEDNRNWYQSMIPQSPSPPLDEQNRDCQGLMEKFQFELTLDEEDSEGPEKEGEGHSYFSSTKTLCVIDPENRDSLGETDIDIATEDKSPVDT", "test": "Inhibition of PDE4B (unknown origin)"}, "[3]": {"target": "cGMP-dependent 3',5'-cyclic phosphodiesterase (Homo sapiens, UniProt O00408)", "sequence (O00408 whole entry)": "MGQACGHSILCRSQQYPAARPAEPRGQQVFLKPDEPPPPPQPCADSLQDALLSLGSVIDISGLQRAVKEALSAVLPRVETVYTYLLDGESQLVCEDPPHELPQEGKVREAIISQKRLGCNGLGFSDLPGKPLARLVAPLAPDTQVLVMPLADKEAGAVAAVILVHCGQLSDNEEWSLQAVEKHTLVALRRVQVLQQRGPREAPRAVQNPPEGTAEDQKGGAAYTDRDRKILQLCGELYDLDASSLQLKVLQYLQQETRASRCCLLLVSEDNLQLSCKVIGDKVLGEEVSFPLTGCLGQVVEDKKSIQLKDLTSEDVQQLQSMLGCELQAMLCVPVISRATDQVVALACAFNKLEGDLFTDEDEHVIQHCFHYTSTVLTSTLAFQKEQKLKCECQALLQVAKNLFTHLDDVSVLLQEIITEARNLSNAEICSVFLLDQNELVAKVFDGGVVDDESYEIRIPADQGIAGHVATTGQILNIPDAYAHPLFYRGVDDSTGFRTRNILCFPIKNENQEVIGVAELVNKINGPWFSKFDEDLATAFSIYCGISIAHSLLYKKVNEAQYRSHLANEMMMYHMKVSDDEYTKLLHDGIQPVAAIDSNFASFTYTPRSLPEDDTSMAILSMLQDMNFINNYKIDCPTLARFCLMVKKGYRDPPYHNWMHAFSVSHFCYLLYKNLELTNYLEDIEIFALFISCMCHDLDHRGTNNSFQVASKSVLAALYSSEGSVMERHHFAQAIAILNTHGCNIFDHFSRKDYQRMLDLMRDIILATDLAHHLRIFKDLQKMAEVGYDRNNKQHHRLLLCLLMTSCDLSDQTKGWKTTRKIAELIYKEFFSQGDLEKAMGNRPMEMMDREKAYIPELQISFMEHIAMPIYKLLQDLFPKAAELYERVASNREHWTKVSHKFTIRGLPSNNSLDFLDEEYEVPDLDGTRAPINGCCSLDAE", "test": "Inhibition of PDE2 (unknown origin)"}, "Phosphodiesterase 4": {"target": "Phosphodiesterase 4 (Homo sapiens, UniProt P27815+Q08499+Q07343+Q08493)", "test": "Inhibition of PDE4 (unknown origin)", "assay_type": "protein assay"}, "Homo sapiens [4]": {"species_on_record": "Homo sapiens", "test": "Selectivity ratio of IC50 for PDE4 (unknown origin) to IC50 for PDE2 (unknown origin)"}, "[5]": {"test": "Half life in iv dosed rat", "assay_type": "ADME, organism-based", "details": "in vivo"}, "[6]": {"target": "High affinity cGMP-specific 3',5'-cyclic phosphodiesterase 9A (Homo sapiens) (UniProt O76083)", "sequence (O76083 whole entry)": "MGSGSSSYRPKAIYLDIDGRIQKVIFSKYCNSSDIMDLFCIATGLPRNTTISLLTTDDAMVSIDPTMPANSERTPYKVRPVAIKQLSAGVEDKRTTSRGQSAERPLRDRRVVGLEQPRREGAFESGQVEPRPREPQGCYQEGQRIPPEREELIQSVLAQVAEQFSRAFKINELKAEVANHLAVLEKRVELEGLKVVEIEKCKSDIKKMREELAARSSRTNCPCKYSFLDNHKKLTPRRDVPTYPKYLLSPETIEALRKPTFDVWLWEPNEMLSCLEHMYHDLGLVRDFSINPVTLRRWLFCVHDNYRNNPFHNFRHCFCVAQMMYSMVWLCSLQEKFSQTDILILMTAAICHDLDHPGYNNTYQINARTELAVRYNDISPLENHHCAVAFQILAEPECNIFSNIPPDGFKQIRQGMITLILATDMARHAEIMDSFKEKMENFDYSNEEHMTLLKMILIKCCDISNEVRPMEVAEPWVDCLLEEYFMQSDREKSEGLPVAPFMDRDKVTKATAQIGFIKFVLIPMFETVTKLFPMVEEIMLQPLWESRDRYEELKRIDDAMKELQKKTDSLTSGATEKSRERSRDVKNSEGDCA", "test": "Inhibition of PDE9 (unknown origin)"}, "[7]": {"test": "Bioavailability in rat", "assay_type": "ADME, organism-based", "details": "in vivo"}, "[8]": {"target": "Phosphodiesterase 1 (Homo sapiens) (UniProt P54750+Q01064+Q14123)", "test": "Inhibition of PDE1 (unknown origin)", "assay_type": "protein assay"}, "[9]": {"target": "Phosphodiesterase 8 (Homo sapiens) (UniProt O95263+O60658)", "sequence (O60658 whole entry, looked up)": "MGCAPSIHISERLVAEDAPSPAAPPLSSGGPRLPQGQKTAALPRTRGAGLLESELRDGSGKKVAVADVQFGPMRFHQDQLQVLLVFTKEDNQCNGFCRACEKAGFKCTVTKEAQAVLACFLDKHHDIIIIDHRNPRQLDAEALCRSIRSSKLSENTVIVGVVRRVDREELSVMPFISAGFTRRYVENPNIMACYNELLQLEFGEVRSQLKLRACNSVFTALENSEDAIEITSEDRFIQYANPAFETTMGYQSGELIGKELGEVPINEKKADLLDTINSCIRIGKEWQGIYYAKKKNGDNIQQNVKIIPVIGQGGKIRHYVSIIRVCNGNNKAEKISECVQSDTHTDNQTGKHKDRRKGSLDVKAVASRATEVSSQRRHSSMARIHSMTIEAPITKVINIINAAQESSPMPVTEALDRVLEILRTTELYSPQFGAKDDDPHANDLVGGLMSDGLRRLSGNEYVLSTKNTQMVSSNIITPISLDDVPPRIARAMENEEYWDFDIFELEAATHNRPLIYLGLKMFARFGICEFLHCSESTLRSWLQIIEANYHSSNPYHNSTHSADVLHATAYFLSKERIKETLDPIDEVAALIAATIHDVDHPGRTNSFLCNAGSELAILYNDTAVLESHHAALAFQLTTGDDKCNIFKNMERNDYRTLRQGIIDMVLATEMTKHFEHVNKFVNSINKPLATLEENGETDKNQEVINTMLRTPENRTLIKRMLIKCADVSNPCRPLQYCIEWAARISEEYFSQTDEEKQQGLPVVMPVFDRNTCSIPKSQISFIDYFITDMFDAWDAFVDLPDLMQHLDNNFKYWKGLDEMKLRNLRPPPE", "sequence (O95263 whole entry, looked up)": "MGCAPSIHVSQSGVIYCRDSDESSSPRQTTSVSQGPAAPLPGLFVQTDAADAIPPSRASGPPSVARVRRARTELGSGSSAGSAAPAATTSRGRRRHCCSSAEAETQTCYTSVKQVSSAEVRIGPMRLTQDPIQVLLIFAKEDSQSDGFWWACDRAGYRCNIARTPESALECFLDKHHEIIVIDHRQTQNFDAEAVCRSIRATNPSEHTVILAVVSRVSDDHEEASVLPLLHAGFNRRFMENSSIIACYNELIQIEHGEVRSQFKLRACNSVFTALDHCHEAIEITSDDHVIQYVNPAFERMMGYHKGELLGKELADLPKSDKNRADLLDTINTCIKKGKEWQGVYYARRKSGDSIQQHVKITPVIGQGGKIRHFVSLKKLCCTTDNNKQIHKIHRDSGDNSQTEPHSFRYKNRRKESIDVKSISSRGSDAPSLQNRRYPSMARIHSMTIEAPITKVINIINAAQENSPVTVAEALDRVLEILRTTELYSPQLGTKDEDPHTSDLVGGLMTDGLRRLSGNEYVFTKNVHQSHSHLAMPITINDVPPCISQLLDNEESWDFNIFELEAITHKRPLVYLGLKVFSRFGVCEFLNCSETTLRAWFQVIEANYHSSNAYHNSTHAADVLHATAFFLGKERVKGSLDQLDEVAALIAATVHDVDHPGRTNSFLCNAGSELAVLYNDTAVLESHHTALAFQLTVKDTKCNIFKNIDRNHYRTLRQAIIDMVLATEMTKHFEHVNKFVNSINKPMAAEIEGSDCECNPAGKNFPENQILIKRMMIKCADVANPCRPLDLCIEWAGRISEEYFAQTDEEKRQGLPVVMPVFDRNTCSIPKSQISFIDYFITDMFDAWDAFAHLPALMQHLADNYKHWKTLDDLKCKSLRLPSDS", "test": "Inhibition of PDE8 (unknown origin)", "assay_type": "protein assay"}, "[10]": {"target": "cAMP and cAMP-inhibited cGMP 3',5'-cyclic phosphodiesterase 10A (Homo sapiens) (UniProt Q9Y233)", "sequence (Q9Y233 whole entry)": "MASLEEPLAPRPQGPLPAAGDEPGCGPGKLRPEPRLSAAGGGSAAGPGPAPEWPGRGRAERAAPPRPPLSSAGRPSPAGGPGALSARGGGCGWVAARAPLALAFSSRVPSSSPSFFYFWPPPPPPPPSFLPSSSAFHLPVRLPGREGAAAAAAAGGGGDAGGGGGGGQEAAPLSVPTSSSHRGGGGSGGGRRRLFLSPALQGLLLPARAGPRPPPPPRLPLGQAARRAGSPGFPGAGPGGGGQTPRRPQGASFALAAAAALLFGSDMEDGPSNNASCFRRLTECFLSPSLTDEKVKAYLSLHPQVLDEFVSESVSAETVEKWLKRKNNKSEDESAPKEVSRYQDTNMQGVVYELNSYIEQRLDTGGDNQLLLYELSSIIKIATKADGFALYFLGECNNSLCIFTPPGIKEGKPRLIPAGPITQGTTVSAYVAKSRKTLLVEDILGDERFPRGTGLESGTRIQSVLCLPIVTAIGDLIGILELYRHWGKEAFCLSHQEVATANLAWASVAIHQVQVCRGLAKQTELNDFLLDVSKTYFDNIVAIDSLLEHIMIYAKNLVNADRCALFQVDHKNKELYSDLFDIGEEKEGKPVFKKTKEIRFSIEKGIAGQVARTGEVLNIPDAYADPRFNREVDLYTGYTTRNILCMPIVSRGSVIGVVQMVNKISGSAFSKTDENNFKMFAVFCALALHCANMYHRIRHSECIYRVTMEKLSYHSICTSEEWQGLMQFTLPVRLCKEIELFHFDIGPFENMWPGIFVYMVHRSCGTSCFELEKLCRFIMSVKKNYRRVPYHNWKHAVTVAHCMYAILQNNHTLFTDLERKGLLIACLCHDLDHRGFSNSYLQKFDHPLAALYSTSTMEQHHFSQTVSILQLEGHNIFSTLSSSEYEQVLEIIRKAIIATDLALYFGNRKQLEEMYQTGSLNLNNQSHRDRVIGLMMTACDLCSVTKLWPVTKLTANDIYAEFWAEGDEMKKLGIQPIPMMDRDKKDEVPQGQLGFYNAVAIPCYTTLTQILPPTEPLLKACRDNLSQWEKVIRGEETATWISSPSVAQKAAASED", "test": "Inhibition of PDE10 (unknown origin)"}, "[11]": {"target": "cGMP-specific 3',5'-cyclic phosphodiesterase (Homo sapiens) (UniProt O76074)", "test": "Inhibition of PDE5 (unknown origin)"}, "[12]": {"test": "Half life in po dosed rat", "assay_type": "ADME, organism-based", "details": "in vivo"}, "[13]": {"target": "Dual 3',5'-cyclic-AMP and -GMP phosphodiesterase 11A (Homo sapiens) (UniProt Q9HCR9)", "test": "Inhibition of PDE11 (unknown origin)"}, "[14]": {"target": "Phosphodiesterase 7 (Homo sapiens) (UniProt Q13946+Q9NP56)", "test": "Inhibition of PDE7 (unknown origin)", "assay_type": "protein assay"}, "[15]": {"target": "Phosphodiesterase 3 (Homo sapiens) (UniProt Q14432+Q13370)", "test": "Inhibition of PDE3 (unknown origin)", "assay_type": "protein assay"}, "[16]": {"target": "Phosphodiesterase 6 (Homo sapiens) (UniProt Q13956+P18545+P35913+O43924+P16499+P51160)", "test": "Inhibition of PDE6 (unknown origin)", "assay_type": "protein assay"}}, "data": [{"smiles": "CC(C)c1nccn1-c1ccc(C2=Nc3c(C(C)(C)C)nn(CCO)c3C(=O)NC2)cc1", "values": [{"measurement": "half-life", "setting": "in vitro", "result": 12, "unit": "min"}, {"measurement": "Ratio IC50", "setting": "Homo sapiens [1]", "result": 3}, {"measurement": "IC50", "setting": "[2]", "result": 330, "unit": "nM"}, {"measurement": "IC50", "setting": "[3]", "result": 97, "unit": "nM"}]}, {"smiles": "CCC(CC)c1nn(CCCO)c2c1N=C(c1ccccc1)CNC2=O", "values": [{"measurement": "half-life", "setting": "in vitro", "result": 36, "unit": "min"}]}, {"smiles": "CC(C)(C)c1nn(CCO)c2c1N=C(c1ccc(F)cc1)CNC2=O", "values": [{"measurement": "IC50", "setting": "Phosphodiesterase 4", "result": 31, "unit": "nM"}, {"measurement": "IC50", "setting": "[3]", "result": 259, "unit": "nM"}, {"measurement": "Ratio IC50", "setting": "Homo sapiens [4]", "result": 0.12}]}, {"smiles": "CCC(CC)c1nn(CCO)c2c1N=C(c1ccc(OC)c(OC)c1)CNC2=O", "values": [{"measurement": "IC50", "setting": "Phosphodiesterase 4", "result": 48, "unit": "nM"}, {"measurement": "half-life", "setting": "in vitro", "result": 23, "unit": "min"}, {"measurement": "IC50", "setting": "[3]", "result": 23, "unit": "nM"}, {"measurement": "Ratio IC50", "setting": "Homo sapiens [4]", "result": 2}]}, {"smiles": "CCC(CC)c1nn(CCO)c2c1N=C(c1ccc(-n3ccnc3C)cc1)CNC2=O", "values": [{"measurement": "IC50", "setting": "Phosphodiesterase 4", "result": 538, "unit": "nM"}, {"measurement": "half-life", "setting": "in vitro", "result": 5, "unit": "min"}, {"measurement": "Ratio IC50", "setting": "Homo sapiens [1]", "result": 11}, {"measurement": "IC50", "setting": "[2]", "result": 583, "unit": "nM"}, {"measurement": "IC50", "setting": "[3]", "result": 54, "unit": "nM"}, {"measurement": "Ratio IC50", "setting": "Homo sapiens [4]", "result": 11}]}, {"smiles": "CCC(C)(C)c1nn(CCO)c2c1N=C(c1ccc(-n3cc(C)nc3C)cc1)CNC2=O", "values": [{"measurement": "half-life", "setting": "in vitro", "result": 9, "unit": "min"}, {"measurement": "Ratio IC50", "setting": "Homo sapiens [1]", "result": 19}, {"measurement": "IC50", "setting": "[2]", "result": 1950, "unit": "nM"}, {"measurement": "IC50", "setting": "[3]", "result": 105, "unit": "nM"}]}, {"smiles": "CCC(CC)c1nn(CCCO)c2c1N=C(c1ccc(-n3ccnc3C)cc1)CNC2=O", "values": [{"measurement": "IC50", "setting": "Phosphodiesterase 4", "result": 10800, "unit": "nM"}, {"measurement": "half-life", "setting": "in vitro", "result": 6, "unit": "min"}, {"measurement": "IC50", "setting": "[3]", "result": 328, "unit": "nM"}, {"measurement": "Ratio IC50", "setting": "Homo sapiens [4]", "result": 33}]}, {"smiles": "CCC(CC)c1nn(CCCO)c2c1N=C(c1ccc(OC)c(OC)c1)CNC2=O", "values": [{"measurement": "IC50", "setting": "Phosphodiesterase 4", "result": 365, "unit": "nM"}, {"measurement": "half-life", "setting": "in vitro", "result": 44, "unit": "min"}, {"measurement": "IC50", "setting": "[3]", "result": 93, "unit": "nM"}, {"measurement": "Ratio IC50", "setting": "Homo sapiens [4]", "result": 4}]}, {"smiles": "CCC(CC)c1nn(CCO)c2c1N=C(c1ccccc1)CNC2=O", "values": [{"measurement": "IC50", "setting": "Phosphodiesterase 4", "result": 76, "unit": "nM"}, {"measurement": "half-life", "setting": "in vitro", "result": 20, "unit": "min"}, {"measurement": "IC50", "setting": "[3]", "result": 102, "unit": "nM"}, {"measurement": "Ratio IC50", "setting": "Homo sapiens [4]", "result": 0.7}]}, {"smiles": "CCC(CC)c1nn(CC)c2c1N=C(c1ccc(C(=O)O)cc1)CNC2=O", "values": [{"measurement": "half-life", "setting": "[5]", "result": 114, "unit": "min"}, {"measurement": "INH", "setting": "[6]", "result": "> 5", "unit": "µM"}, {"measurement": "bioavailability", "setting": "[7]", "result": 80, "unit": "%"}, {"measurement": "INH", "setting": "[8]", "result": "> 5", "unit": "µM"}, {"measurement": "IC50", "setting": "Phosphodiesterase 4", "result": 1.2, "unit": "nM"}, {"measurement": "INH", "setting": "[9]", "result": "> 5", "unit": "µM"}, {"measurement": "INH", "setting": "[10]", "result": "> 5", "unit": "µM"}, {"measurement": "INH", "setting": "[11]", "result": "> 5", "unit": "µM"}, {"measurement": "IC50", "setting": "[3]", "result": 840, "unit": "nM"}, {"measurement": "half-life", "setting": "[12]", "result": 300, "unit": "min"}, {"measurement": "Ratio IC50", "setting": "Homo sapiens [4]", "result": 0.0015}, {"measurement": "INH", "setting": "[13]", "result": "> 5", "unit": "µM"}, {"measurement": "INH", "setting": "[14]", "result": "> 5", "unit": "µM"}, {"measurement": "INH", "setting": "[15]", "result": "> 5", "unit": "µM"}, {"measurement": "INH", "setting": "[16]", "result": "> 5", "unit": "µM"}]}, {"smiles": "CCC(C)(C)c1nn(CCO)c2c1N=C(c1ccc(-n3ccnc3C)cc1)CNC2=O", "values": [{"measurement": "half-life", "setting": "in vitro", "result": 7, "unit": "min"}, {"measurement": "Ratio IC50", "setting": "Homo sapiens [1]", "result": 8}, {"measurement": "IC50", "setting": "[2]", "result": 378, "unit": "nM"}, {"measurement": "IC50", "setting": "[3]", "result": 45, "unit": "nM"}]}, {"smiles": "COc1ccc(Cc2nn3c([C@@H](CCc4ccccc4)[C@@H](C)O)nc(C)c3c(=O)[nH]2)cc1OO", "values": [{"measurement": "IC50", "setting": "[3]", "result": 4.7, "unit": "nM"}]}, {"smiles": "CCCCCC[C@@H]([C@@H](C)O)n1cnc2c(N)ncnc21", "note": "(relative stereo) [EHNA]", "values": [{"measurement": "IC50", "setting": "[3]", "result": 800, "unit": "nM"}]}]}
